Laboratory results published in patent EP3789378A1, “PIPERIDINES OR PIPERIDONES SUBSTITUTED WITH UREA AND HETEROARYL” (Grünenthal GmbH, priority 2019, dated 2021).

Biological target: T1, h FPR2 (Homo sapiens, UniProt P25090)
T1 construct: expressed in transfected cells
T1 sequence (P25090 1-351): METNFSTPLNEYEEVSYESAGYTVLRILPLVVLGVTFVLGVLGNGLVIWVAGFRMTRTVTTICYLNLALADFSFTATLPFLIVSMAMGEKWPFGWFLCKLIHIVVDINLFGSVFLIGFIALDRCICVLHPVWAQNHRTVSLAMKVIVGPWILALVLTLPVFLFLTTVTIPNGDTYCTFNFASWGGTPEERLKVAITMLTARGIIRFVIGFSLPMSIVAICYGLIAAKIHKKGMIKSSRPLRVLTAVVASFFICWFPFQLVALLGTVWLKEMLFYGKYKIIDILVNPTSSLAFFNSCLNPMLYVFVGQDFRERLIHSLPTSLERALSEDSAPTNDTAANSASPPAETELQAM
Assay: Agonistic activity in hFPR2-Aq-CHO cells (FLIPR Calcium 5 fluorescence assay)
Assay type: cell-based
Conditions: 11 point half log dilution, final assay concentration from 10µM
How it was run: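 EC50 reflects the compound-evoked rise in Calcium 5 fluorescence over basal, recorded for 5 min on FLIPR and compared with no-compound wells. Dye-loaded hFPR2-Aq-CHO cells received half-log dilutions from 10 µM to 100 pM final in pH 7.4 HBSS buffer.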

| SMILES | EC50 |
| --- | --- |
| COc1ccc([C@@H]2CN(CC3CC(O)C3)CC[C@H]2NC(=O)Nc2ccc(Cl)cc2)nc1 (single isomer, unassigned) [Ex-203, trans-1-(4-chloro-phenyl)-3-[1'-(3-hydroxy-cyclobutylmethyl)-5-methoxy-1',2',3',4',5',6'-hexahydro-[2,3']bipyridinyl-4'-yl]-urea] | 0.7 nM |
| COc1ccc([C@H]2CN(CCO)CC[C@@H]2NC(=O)Nc2ccc(Cl)cc2)nc1 [Ex-206] | 2 nM |
| COc1ccc([C@H]2CN(CC(F)F)CC[C@@H]2NC(=O)Nc2cc(C)ns2)nc1 [Ex-214] | 0.8 nM |
| COc1ccc([C@H]2CN(CC(=O)N(C)C)CC[C@@H]2NC(=O)Nc2ccc(Cl)cc2)nc1 [Ex-216] | 2 nM |
| COc1ccc([C@H]2CN(C(C)(C)C(N)=O)CC[C@@H]2NC(=O)Nc2ccc(Cl)cc2)nc1 [Ex-225] | 8 nM |

Results, then the compound that gave them:

| EC50 | SMILES |
| --- | --- |
| 1.4 nM | COc1ccc([C@@H]2CN(CC3CC(OC)C3)CC[C@H]2NC(=O)Nc2ccc(Cl)cc2)nc1 (single isomer, unassigned) [Ex-202, trans-1-(4-chloro-phenyl)-3-[5-methoxy-1'-(3-methoxy-cyclobutylmethyl)-1',2',3',4',5',6'-hexahydro-[2,3']bipyridinyl-4'-yl]-urea] |
| 4 nM | COc1ccc([C@@H]2CN(CC3CC(O)C3)CC[C@H]2NC(=O)Nc2ccc(Cl)cc2)nc1 (single isomer, unassigned) [Ex-205, trans-1-(4-chloro-phenyl)-3-[1'-(3-hydroxy-cyclobutylmethyl)-5-methoxy-1',2',3',4',5',6'-hexahydro-[2,3']bipyridinyl-4'-yl]-urea] |
| 0.12 nM | COc1ccc([C@H]2CN(CC3(C(N)=O)CC3)CC[C@@H]2NC(=O)Nc2ccc(Cl)cc2)nc1 [Ex-143, trans-1-[[4-[[(4-Chlorophenyl)-carbamoyl]amino]-3-(5-methoxy-pyridin-2-yl)-piperidin-1-yl]-methyl]-cyclopropane-1-carboxyfic acid amide] |
| 0.3 nM | CNC(=O)CN1CC[C@H](NC(=O)Nc2ccc(Cl)cc2)[C@@H](c2ccc(OC)cn2)C1 [Ex-215] |
